Measurements taken from patent US20260256909A1, “COMBINATION OF A BTN3A ACTIVATING ANTIBODY, A BCL2 INHIBITOR AND HYPOMETHYLATING AGENT FOR USE IN TREATING CANCER” (Imcheck Therapeutics, priority 2022, published 2026).

Assays:
Format in all cases: cell-based, human
Vγ9Vδ2 T cells = experiment: Expression of activating and inhibitory receptors by Vγ9Vδ2 T cells in HD-PBMC; conditions: for effect on ICT01-induced expression of activating and inhibitory receptors on Vγ9Vδ2 T cells: day 5, Venetoclax 0-0.1 μM, 5-Azacytidine 0-0.4 μM
Description: Vγ9Vδ2 T cell functions are tightly regulated by activating (NKG2D and DNAM-1) and inhibitory receptors (PD-1, NKG2A, BTLA, TIM3). To assess the impact of Venetoclax and 5-Azacytidine treatment on the expression of these receptors by Vγ9Vδ2 T cells, frozen human PBMC from healthy donors (HD, n=6) were thawed and treated with ICT01 or its isotype control (hIgG1S) used at 1 μg/mL in the presence or absence of increasing concentrations of Venetoclax (0-0.1 μM), 5-Azacytidine (0-0.4 μM) or the combination in PBMC medium (RPMI 1640 Medium supplemented with 10% FBS, 1% Penicillin/Streptomycin, 1 mM Sodium Pyruvate and 50 IU/mL IL2). Cells were harvested on day 5, centrifuged at 1800 rpm for 5 minutes and then incubated 10 minutes at RT with 25 μl of FcR blocking reagent (Miltenyi Biotec) before adding 25 μL of the following antibody mix prepared in PBS+2% FBS+2 mM EDTA (FACS buffer): anti-CD4-BUV395, Vδ2-PE, CD3-PE-CF594 and CD8-A700 antibodies for the identification of immune subsets, anti-BTLA-BV421, PD1-BV650, DNAM-1-BV785, TIM3-BB515, NKG2A-PE-Vio770 and NKG2D-APC antibodies for the detection of inhibitory and activating receptors, and a viability marker (LIVE/DEAD™ Fixable Dead Cell Stain) was added to distinguish live from dead cells. Cells were incubated 20 minutes at 4° C. and washed 2 times in FACS buffer before flow cytometry analysis.

KG1a AML cells = experiment: Killing of KG1a AML cells in co-culture with HD-PBMC (flow cytometry); conditions: for effect on Vγ9Vδ2 T cell killing activity compared to hIgG1S conditions: upon activation with ICT01, single agent, KG1a co-culture with HD-PBMC
Description: A) Sensitivity of KG1a cell line to Venetoclax, 5-Azacytidine or the combination. […] N=2 experiments. B) Mean±SEM relative number of Live KG1a AML cells monitored by flow cytometry after 3 days of co-culture with HD-PBMC (E:T ratio 25:1) treated with ICT01 (black) or its isotype control (hIgG1S, light grey) at 0.1 or 1 μg/mL. N=6, each dot represents one healthy donor. C) Schematic representation of treatment schedule for killing of KG1a AML cells by HD-PBMC. D) Relative number of Live KG1a AML cells (Mean±SEM) (left) and Frequency of Live KG1a AML cell relative to no Venetoclax or 5-Azacytidine treatment (Mean±SEM) (right) after 3 days of co-culture with HD-PBMC in presence of ICT01 (black) or its isotype control (hIgG1S, light grey) and treatment with Venetoclax, 5-Azacytidine or the combination. N=6, each dot represents one healthy donor, * p<0.05, Wilcoxon test.
KG1a cells were co-cultured with HD-PBMC at ratio 5:1 in presence of m20.1 or isotype control (0.1 μg/mL). After 6 hrs, indicated concentrations of Venetoclax, 5-Azacytidine or the combination were added to the culture. Relative number of live KG1a was monitored after 48 hrs by flow cytometry. […] N=6, each dot represents one healthy donor, * p<0.05, ** p<0.01, *** p<0.001, **** p<0.0001, 2 way ANOVA.
KG1a or MOLM14 AML cell lines were co-cultured with HD-PBMC at ratio 5:1 in presence of ICT01 or isotype control (0.1 μg/mL). After 6 hrs, indicated concentrations of ABT-737, Navitoclax or MIK665 were added to the culture. A) Relative numbers of live KG1a cells (Mean±SEM) after 2 days of co-culture with HD-PBMC in presence of ICT01 (black) or its isotype control hIgG1S (light grey) and treatment with indicated concentration of ABT-737. B) Relative numbers of live KG1a cells (Mean±SEM) after 2 days of co-culture with HD-PBMC in presence of ICT01 (black) or its isotype control hIgG1S (light grey) and treatment with indicated concentration of Navitoclax. C) Relative numbers of live MOLM14 cells (Mean±SEM) after 2 days of co-culture with HD-PBMC in presence of ICT01 (black) or its isotype control hIgG1S (light grey) and treatment with indicated concentration of MIK665. N=6 HD, each dot represents one healthy donor, * p<0.05, 2 way ANOVA.
The effect of Venetoclax and 5-Azacytidine on anti-BTN3A antibodies-induced killing of AML cell lines by Vγ9Vδ2 T cells was assessed by measuring the relative number of surviving target cells in a HD-PBMC-AML cell co-culture using flow cytometry.
Then, KG1a AML cells were stained with CellTrace CFSE Proliferation dye (ThermoFisher) to allow for specific detection by flow cytometry, counted, put into a co-culture with thawed HD-PBMC and treated with the anti-BTN3A mAbs ICT01 or m20.1 or their respective isotype controls (hIgG1S or mIgG1) in PBMC medium (RPMI 1640 Medium supplemented with 10% Fetal Bovine Serum (FBS) and 1 mM Sodium Pyruvate). On day one of culture, increasing concentrations of Venetoclax (0-0.4 μM), 5-Azacytidine (0-0.4 μM) or the combination were added. Cells were harvested on day 3 of co-culture, centrifuged at 1800 rpm for 5 minutes and then incubated 10 minutes at room temperature (RT) with 25 μl of FcR blocking reagent (Miltenyi Biotec) before adding 25 μL of the following antibody mix prepared in PBS+2% FBS+2 mM EDTA (FACS buffer): anti-CD56-BV421, CD19-BV421, CD14-BV785, Tyb-PE and CD3-AF700 antibodies for the identification of immune subsets, and a viability marker (LIVE/DEAD™ Fixable Dead Cell Stain) was added to distinguish live and dead cells. Cells were incubated 20 minutes at room temperature, washed once in FACS buffer and once in AnnexinV staining buffer. An AnnexinV-APC probe mixed with CountBright Absolute Counting Beads (Invitrogen) was added to determine apoptosis and relative cell numbers, followed by 15 minutes incubation at RT before flow cytometry analysis. […]

KG1a AML cell line = experiment: Sensitivity of KG1a AML cell line (Cell Titer Glo luminescence); conditions: for EC50: Homo sapiens, KG-1a, 48 h, 2 days treatment, luminescence, read-out: EC50 on KG1a AML cells; for mean survival of KG1a AML cells: Venetoclax at 5 μM and/or 5-Azacytidine at 10 μM, 2 days
Description: First, to assess the sensitivity of KG1a AML cell line to Venetoclax and 5-Azacytidine treatment in vitro, cells were treated with increasing concentrations of Venetoclax (0-5 μM), 5-Azacytidine (0-10 μM) or the combination for 2 days in cell culture medium (alpha-MEM+Glutamax supplemented with 20% Fetal Bovine Serum (FBS) and 1 mM Sodium Pyruvate). On day 2, cells were centrifuged at 1800 rpm for 5 minutes and the supernatant discarded. Cells were lysed with Cell Titer Glo reagent (Promega), and ATP amount was monitored as a measure of living cells using luminescence.

Nc1ncn([C@@H]2O[C@H](CO)[C@@H](O)[C@H]2O)c(=O)n1 [5-Azacytidine, 4-amino-1-[(2R,3R,4S,5R)3,4-dihydroxy-5-(hydroxymethyl)oxolan-2-yl]-1,3,5-triazin-2-one]
effect on ICT01-induced expression of activating and inhibitory receptors on Vγ9Vδ2 T cells (Vγ9Vδ2 T cells): unaffected | effect on KG1a survival (KG1a AML cells; hIgG1S conditions, co-culture with HD-PBMC, day 3): no effect | effect on KG1a survival (KG1a AML cells; mIgG1 conditions, HD-PBMC ratio 5:1, 48 hrs): no effect | effect on Vγ9Vδ2 T cell killing activity compared to hIgG1S conditions (KG1a AML cells): slight increasing effects | EC50 (KG1a AML cell line): 4.72 µM | mean survival of KG1a AML cells (KG1a AML cell line): 47.2%

CC1(C)CCC(CN2CCN(c3ccc(C(=O)NS(=O)(=O)c4ccc(NCC5CCOCC5)c([N+](=O)[O-])c4)c(Oc4cnc5[nH]ccc5c4)c3)CC2)=C(c2ccc(Cl)cc2)C1 [Venetoclax, 4-[4-[[2-(4-chlorophenyl)-4,4-dimethylcyclohexen-1-yl]methyl]piperazin-1-yl]-N-[3-nitro-4-(oxan-4-ylmethylamino)phenyl]sulfonyl-2-(1H-pyrrolo[2,3-b]pyridin-5-yloxy)benzamide]
effect on ICT01-induced expression of activating and inhibitory receptors on Vγ9Vδ2 T cells (Vγ9Vδ2 T cells): unaffected | reduction of KG1a relative numbers (KG1a AML cells; hIgG1S-treatment conditions, highest concentration, co-culture with HD-PBMC, day 3): ~ 28% | reduction of KG1a relative numbers (KG1a AML cells; mIgG1 conditions, Venetoclax 0.1 μM alone or combined with 0.4 μM 5-Azacytidine, HD-PBMC ratio 5:1, 48 hrs): 41% | effect on Vγ9Vδ2 T cell killing activity compared to hIgG1S conditions (KG1a AML cells): slight increasing effects | EC50 (KG1a AML cell line): 1.82 µM | mean survival of KG1a AML cells (KG1a AML cell line): 20.2%

ICT01: humanized BTN3A activating antibody of mAb 7.2, heavy chain SEQ ID NO: 4, light chain SEQ ID NO: 6, silent IgG1 L247F/L248E/P350S
expression of activating (NKG2D, DNAM-1) and inhibitory receptors (PD-1, NKG2A, BTLA, TIM3) on Vγ9Vδ2 T cells (Vγ9Vδ2 T cells; day 5, ICT01 1 μg/mL, 50 IU/mL IL2): increased expression | average reduction of live KG1a cell numbers compared to hIgG1S conditions (KG1a AML cells; 3 days co-culture with HD-PBMC (E:T ratio 25:1), large variability within PBMC donors): ~ 20% | KG1a cell death as compared to control condition (KG1a AML cells; ICT01 0.1 μg/mL, HD-PBMC ratio 5:1, 2 days (FIG. 8a)): ~ 21%
